From patent publication US11225505B2, “Antimicrobial polymyxin derivative compounds” (MONASH UNIVERSITY, priority 2015, dated 2022)
Values after ≈ are worked out from the molar mass of the structure shown. Where a SMILES comes first, the peptide text is derived from it. Bridges are numbered along the chain shown (N, C = ends). [ ]: non-standard residue; d: D form. The star is where a group is joined. Propanoyl(3-indol-3-yl) = O=C(CCc1c[nH]c2ccccc12)*; X45 = O=C(c1cc(C(F)(F)F)ccn1)*; X22 = Cn1c(C(=O)*)cc2ccccc21; X28 = Cc1cc(C(=O)*)cc(Cl)n1; Dab = NCC[C@H](N)C(=O)O; Abu = CC[C@H](N)C(=O)O; Dap = NC[C@H](N)C(=O)O

What was measured:
Format in all cases: cell-based
[1] = system: Acinetobacter baumannii FADDI-AB030; test: microbe, parasite or virus in culture; details: FADDI-AB030
How it was run: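 Broth microdilution MIC in cation-adjusted Mueller-Hinton broth per CLSI M100-S24; lipopeptides tested as TFA salts. FADDI-AB030 is a multidrug-resistant clinical isolate. Polymyxin B sulphate served as control.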

[2] = system: Klebsiella pneumoniae FADDI-KP032; details: FADDI-KP032
How it was run: (§1)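 Standard CLSI (M100-S24) microdilution in cation-adjusted broth gives the MIC for each strain. Test compounds are TFA-salt lipopeptides; the comparator is polymyxin B sulphate.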

[3] = system: Pseudomonas aeruginosa FADDI-PA038; details: FADDI-PA038
How it was run: as §1

[4] = system: Pseudomonas aeruginosa FADDI-PA022; details: FADDI-PA022
How it was run: as §1

[5] = system: Klebsiella pneumoniae FADDI-KP022; details: FADDI-KP022
How it was run: as §1

[6] = system: Klebsiella pneumoniae Kp BM1; details: Kp BM1
How it was run: (§2)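 Lipopeptides (TFA salts) tested against Gram-negative strains by CLSI broth microdilution using cation-adjusted Mueller-Hinton broth; MIC recorded, polymyxin B sulphate as control.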

[7] = system: Acinetobacter baumannii FADDI-AB034; details: FADDI-AB034
How it was run: as §1

[8] = system: Pseudomonas aeruginosa FADDI-PA01; details: FADDI-
How it was run: as §1

[9] = system: Enterobacter cloacae FADDI-EC001; details: FADDI-EC001
How it was run: as §2

[10] = system: Pseudomonas aeruginosa ATCC 27853; details: ATCC 27853
How it was run: as §1

[11] = system: Acinetobacter baumannii ATCC 17978; details: ATCC 17978
How it was run: as §1

[12] = system: Enterobacter cloacae FADDI-EC003; details: FADDI-EC003
How it was run: as §1

[13] = system: Enterobacter cloacae FADDI-EC006; details: FADDI-EC006
How it was run: as §1

SMILES	Minimum inhibitory concentration [1]	Minimum inhibitory concentration [2]	Minimum inhibitory concentration [3]	Minimum inhibitory concentration [4]	Minimum inhibitory concentration [5]	Minimum inhibitory concentration [6]	Minimum inhibitory concentration [7]	Minimum inhibitory concentration [8]	Minimum inhibitory concentration [9]	Minimum inhibitory concentration [10]	Minimum inhibitory concentration [11]	Minimum inhibitory concentration [12]	Minimum inhibitory concentration [13]
CC[C@@H]1NC(=O)[C@@H](CC(C)C)NC(=O)[C@H](CCN)NC(=O)[C@@H](NC(=O)[C@H](CN)NC(=O)[C@@H](NC(=O)[C@H](CCN)NC(=O)CCc2c[nH]c3ccccc23)[C@@H](C)O)CCNC(=O)[C@H]([C@@H](C)O)NC(=O)[C@H](CCN)NC(=O)[C@H](CCN)NC1=O [Compound 104] ({Propanoyl(3-indol-3-yl)}-[Dab]T[Dap][Dab][Dab][dL][Abu][Dab][Dab]T; lactam 4-C)	0.5 µg/mL (≈ 0.432 µM)	<0.125 µg/mL	0.5 µg/mL (≈ 0.432 µM)	0.25 µg/mL (≈ 0.216 µM)	<0.125 µg/mL	<0.125 µg/mL	0.5 µg/mL (≈ 0.432 µM)	<0.125 µg/mL	<0.125 µg/mL	0.25 µg/mL (≈ 0.216 µM)	0.5 µg/mL (≈ 0.432 µM)	<0.125 µg/mL	0.25 µg/mL (≈ 0.216 µM)
CC[C@@H]1NC(=O)[C@@H](CC(C)C)NC(=O)[C@H](CCN)NC(=O)[C@@H](NC(=O)[C@H](CN)NC(=O)[C@@H](NC(=O)[C@H](CCN)NC(=O)c2cc(C)nc(Cl)c2)[C@@H](C)O)CCNC(=O)[C@H]([C@@H](C)O)NC(=O)[C@H](CCN)NC(=O)[C@H](CCN)NC1=O [Compound 39] (X28-[Dab]T[Dap][Dab][Dab][dL][Abu][Dab][Dab]T; lactam 4-C)	0.5 µg/mL (≈ 0.438 µM)	0.5 µg/mL (≈ 0.438 µM)	1 µg/mL (≈ 0.877 µM)	0.5 µg/mL (≈ 0.438 µM)	<0.125 µg/mL	1 µg/mL (≈ 0.877 µM)	1 µg/mL (≈ 0.877 µM)	0.5 µg/mL (≈ 0.438 µM)	0.5 µg/mL (≈ 0.438 µM)	0.5 µg/mL (≈ 0.438 µM)	1 µg/mL (≈ 0.877 µM)	0.5 µg/mL (≈ 0.438 µM)	1 µg/mL (≈ 0.877 µM)
CC(C)C[C@H]1NC(=O)[C@H](CCN)NC(=O)[C@@H](NC(=O)[C@H](CN)NC(=O)[C@@H](NC(=O)[C@H](CCN)NC(=O)c2cc3ccccc3n2C)[C@@H](C)O)CCNC(=O)[C@H]([C@@H](C)O)NC(=O)[C@H](CCN)NC(=O)[C@H](CCN)NC(=O)[C@H]([C@@H](C)O)NC1=O [Compound 64] (X22-[Dab]T[Dap][Dab][Dab][dL]T[Dab][Dab]T; lactam 4-C)	1 µg/mL (≈ 0.862 µM)	0.5 µg/mL (≈ 0.431 µM)	1 µg/mL (≈ 0.862 µM)	0.25 µg/mL (≈ 0.215 µM)	0.25 µg/mL (≈ 0.215 µM)	0.5 µg/mL (≈ 0.431 µM)	1 µg/mL (≈ 0.862 µM)	0.5 µg/mL (≈ 0.431 µM)	1 µg/mL (≈ 0.862 µM)	0.5 µg/mL (≈ 0.431 µM)	2 µg/mL (≈ 1.72 µM)	1 µg/mL (≈ 0.862 µM)	2 µg/mL (≈ 1.72 µM)
CC[C@@H]1NC(=O)[C@@H](CC(C)C)NC(=O)[C@H](CCN)NC(=O)[C@@H](NC(=O)[C@H](CN)NC(=O)[C@@H](NC(=O)[C@H](CCN)NC(=O)c2cc(C(F)(F)F)ccn2)[C@@H](C)O)CCNC(=O)[C@H]([C@@H](C)O)NC(=O)[C@H](CCN)NC(=O)[C@H](CCN)NC1=O [Compound 21] (X45-[Dab]T[Dap][Dab][Dab][dL][Abu][Dab][Dab]T; lactam 4-C)	0.25 µg/mL (≈ 0.215 µM)	<0.125 µg/mL	0.5 µg/mL (≈ 0.431 µM)	0.25 µg/mL (≈ 0.215 µM)	<0.125 µg/mL	<0.125 µg/mL	0.25 µg/mL (≈ 0.215 µM)	0.25 µg/mL (≈ 0.215 µM)	<0.125 µg/mL	0.25 µg/mL (≈ 0.215 µM)	0.25 µg/mL (≈ 0.215 µM)	0.25 µg/mL (≈ 0.215 µM)	1 µg/mL (≈ 0.862 µM)
